# According to article PMC12152147, “DDB1 engagement defines the selectivity of S656 analogs for cyclin K degradation over CDK inhibition” (EMBO Reports, 2025):
# Values joined by “and” are separate entries in the source; they are usually repeats but may differ in a detail not shown here. Equal entries are not always repeated. Where two headings read alike, the source gives them in different places.
# Assays:
# [1] = system: primary AML specimens; test: Dose-response assays in primary AML specimens (6 days, CellTiterGlo); type: cell-based, human; details: Homo sapiens, 144 h, 6 days, read-out: IC50
# Method: Freshly thawed primary AML specimens were used for chemical screens. Cryopreserved cells were thawed at 37 °C in IMDM containing 20% FBS and DNase I (100 μg/mL). Cells were resuspended in IMDM supplemented with 15% BIT (BSA, insulin, transferrin; StemCell Technologies), 100 ng/mL SCF, 50 ng/mL FLT3L, 20 ng/mL IL3, 20 ng/mL G-CSF, 10^−4 mol/L b-mercaptoethanol, gentamicin (50 μg/mL), ciprofloxacin (10 μg/mL), SR1 (500 nmol/L) and UM729 (500 nmol/L). Cells were plated in 384-well white plates, 5000 cells per well in 50 μL. Compounds were dissolved in DMSO, diluted in media immediately before use and added to seeded cells at the unique concentration of 1 μM. Control wells received DMSO (0.1%) only. Cell viability was evaluated after 6 days in culture using the CellTiterGlo assay according to the manufacturer’s instruction. Percentage of inhibition for dose response curves was calculated as 100 – (100 × (mean luminescence [compound]/mean luminescence [DMSO])). Dose response curves were generated using nonlinear regression in GraphPad Prism version.
# Dose-response assays in primary AML specimens were performed as in chemical screen (see above) with the exception that compounds were tested in serial dilution (8 dilutions, 1:4, 10 μM down to 0.5 nM). Dose-response assays in OCI-AML5 cell line were conducted similarly with the following modifications: 300 cells per well were seeded in 50 μL of cell line media and cell viability was evaluated after 4 days in culture.
# [2] = system: OCI-AML5 cells; test: Dose-response proliferative assay in OCI-AML5 (4 days, CellTiterGlo); type: cell-based, H. sapiens; details: Homo sapiens, OCI-AML-5, OCI-AML5 cells; read-out: IC50 in AML5
# In short: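 Viability assessed after 4 days of compound exposure at 37 °C, 5% CO2. Compounds tested as 8 dilutions (1:4, 10 μM to 0.5 nM) on 300 OCI-AML5 cells/well grown in αMEM with 10% heat-inactivated FBS and 10 ng/mL GM-CSF.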
# [3] = system: cyclin KeGFP; test: Cyclin KeGFP reporter system (eGFP/mCherry MFI by flow cytometry);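 as to % degradation cyclin K-eGFP: 10 μM compound for 3 h relative to DMSO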; type: cell-based, H. sapiens
# In short: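 Degradation read as eGFP-to-mCherry MFI ratio relative to DMSO controls, from flow cytometry of the selected G7 clone of OCI-AML5 cells transduced with the cyclin KeGFP reporter.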
# [4] = target: T1, CDK1 (Homo sapiens, UniProt P06493); test: CDK1 in vitro kinase activity, single concentration 1 μM; type: biochemical; details: single concentration 1 μM
# T1 construct: purchased BPS Bioscience 79597
# Method: (§1) Kinase activity was assessed using the kinase assay kits from BPS Bioscience for CDK1, CDK9 and CDK12 with Kinase Glo MAX in duplicates. Compounds were tested at a single concentration of 1 μM for CDK1 and CDK9 activity, and in a dilution ranging from 0.64 nM to 50 μM for CDK12 activity. Chemiluminescence was read using the Neo Synergy BioTek plate reader.
# [5] = target: T2, CDK9/CyclinT (Homo sapiens, UniProt P50750); test: CDK9/CyclinT in vitro kinase activity, single concentration 1 μM; type: biochemical; details: single concentration 1 μM
# T2 construct: purchased BPS Bioscience 79628
# Method: as §1
# [6] = system: OCI-AML5 cells expressing shRNAs targeting CDK1, 2, 4, 7, 9, cyclin K; test: Dose response in OCI-AML5 expressing shRNAs targeting CDK1, 2, 4, 7, 9, cyclin K or control; type: cell-based, H. sapiens
# [7] = system: OCI-AML5 cells expressing shRNA targeting CUL4A or CUL4B; test: Dose response in OCI-AML5 expressing shRNAs targeting CUL4A, CUL4B or control; type: cell-based, H. sapiens; details: ratio of IC50 in shCUL4A vs shCTRL OCI-AML5 cells
# T1 sequence (P06493 whole entry): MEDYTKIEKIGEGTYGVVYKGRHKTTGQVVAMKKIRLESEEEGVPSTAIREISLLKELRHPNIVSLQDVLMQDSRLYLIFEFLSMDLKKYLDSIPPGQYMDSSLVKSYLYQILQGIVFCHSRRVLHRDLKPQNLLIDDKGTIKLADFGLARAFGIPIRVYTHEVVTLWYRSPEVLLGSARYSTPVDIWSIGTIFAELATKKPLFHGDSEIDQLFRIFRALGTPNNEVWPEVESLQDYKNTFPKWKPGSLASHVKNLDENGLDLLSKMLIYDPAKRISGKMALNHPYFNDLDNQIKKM
# T1 sequence (P14635 whole entry partner): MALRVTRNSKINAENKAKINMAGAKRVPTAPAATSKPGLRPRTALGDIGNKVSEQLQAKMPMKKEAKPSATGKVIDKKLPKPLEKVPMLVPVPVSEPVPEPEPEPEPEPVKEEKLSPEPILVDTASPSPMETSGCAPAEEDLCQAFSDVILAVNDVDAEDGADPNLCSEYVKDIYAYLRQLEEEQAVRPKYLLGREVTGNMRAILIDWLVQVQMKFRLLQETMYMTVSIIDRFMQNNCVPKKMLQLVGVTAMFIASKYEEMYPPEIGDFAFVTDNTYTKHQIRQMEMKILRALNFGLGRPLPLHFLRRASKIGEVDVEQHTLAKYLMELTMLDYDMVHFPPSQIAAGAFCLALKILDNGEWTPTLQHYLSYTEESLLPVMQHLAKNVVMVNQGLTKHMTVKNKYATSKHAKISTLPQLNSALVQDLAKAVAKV
# T2 sequence (P50750 whole entry): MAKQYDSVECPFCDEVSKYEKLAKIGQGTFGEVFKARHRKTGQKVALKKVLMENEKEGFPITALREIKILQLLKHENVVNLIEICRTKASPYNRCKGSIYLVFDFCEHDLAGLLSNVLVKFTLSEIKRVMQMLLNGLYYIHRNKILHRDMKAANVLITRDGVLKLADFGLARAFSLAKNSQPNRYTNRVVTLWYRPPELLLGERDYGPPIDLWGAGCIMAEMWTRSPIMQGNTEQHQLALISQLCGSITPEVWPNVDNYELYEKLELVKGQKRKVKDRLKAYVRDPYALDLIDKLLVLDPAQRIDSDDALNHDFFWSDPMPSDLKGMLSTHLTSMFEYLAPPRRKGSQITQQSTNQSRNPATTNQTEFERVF
# T2 sequence (O60563 whole entry partner): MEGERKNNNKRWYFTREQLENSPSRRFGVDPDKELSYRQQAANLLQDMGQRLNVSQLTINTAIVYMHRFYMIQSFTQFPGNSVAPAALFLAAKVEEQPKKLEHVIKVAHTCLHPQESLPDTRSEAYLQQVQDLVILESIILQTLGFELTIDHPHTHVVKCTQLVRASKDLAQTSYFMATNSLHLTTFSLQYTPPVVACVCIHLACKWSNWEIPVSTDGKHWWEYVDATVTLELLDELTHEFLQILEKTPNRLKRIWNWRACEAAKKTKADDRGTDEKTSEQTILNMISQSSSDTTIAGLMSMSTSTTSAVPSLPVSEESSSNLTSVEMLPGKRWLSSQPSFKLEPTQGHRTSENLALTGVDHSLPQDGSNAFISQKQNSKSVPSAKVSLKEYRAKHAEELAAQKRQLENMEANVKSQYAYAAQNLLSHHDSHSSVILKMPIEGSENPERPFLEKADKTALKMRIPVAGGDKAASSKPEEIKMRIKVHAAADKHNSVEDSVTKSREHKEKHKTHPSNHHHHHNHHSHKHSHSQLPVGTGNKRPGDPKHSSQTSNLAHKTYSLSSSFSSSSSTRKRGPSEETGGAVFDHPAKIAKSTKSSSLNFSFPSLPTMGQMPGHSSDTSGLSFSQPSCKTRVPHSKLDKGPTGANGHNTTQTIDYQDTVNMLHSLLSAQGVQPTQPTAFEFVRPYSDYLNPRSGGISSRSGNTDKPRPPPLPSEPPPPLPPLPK
compound,measurement,setting,value
Cn1cc(-n2cnc3c(NCc4nc5cc(Cl)c(Cl)cc5[nH]4)nc(N4CCOCC4)nc32)cn1 [SR4835],IC50,[1]; primary AML specimen 03H109,0.0239 µM
same,IC50,[1]; primary AML specimen 04H055,0.0379 µM
same,IC50,[1]; primary AML specimen 04H096,0.0378 µM
same,IC50,[1]; primary AML specimen 04H138,0.0462 µM
same,IC50,[1]; primary AML specimen 05H113,0.0373 µM
same,IC50,[1]; primary AML specimen 05H149,0.0455 µM
same,IC50,[1]; primary AML specimen 05H193,0.0429 µM
same,IC50,[1]; primary AML specimen 06H088,0.0402 µM
same,IC50,[1]; primary AML specimen 06H117,0.0343 µM
same,IC50,[1]; primary AML specimen 06H151,0.0285 µM
same,IC50,[1]; primary AML specimen 07H003,0.0441 µM
same,IC50,[1]; primary AML specimen 07H131,0.099 µM
same,IC50,[1]; primary AML specimen 07H144,0.0319 µM
same,IC50,[1]; primary AML specimen 07H155,0.0559 µM
same,IC50,[1]; primary AML specimen 08H018,0.0413 µM
same,IC50,[1]; primary AML specimen 08H021,0.0298 µM
same,IC50,[1]; primary AML specimen 08H056,0.0705 µM
same,IC50,[1]; primary AML specimen 08H063,0.125 µM
same,IC50,[1]; primary AML specimen 08H085,0.0389 µM
same,IC50,[1]; primary AML specimen 08H108,0.0417 µM
same,IC50,[1]; primary AML specimen 08H118,0.0335 µM
same,IC50,[1]; primary AML specimen 09H016,0.0353 µM
same,IC50,[1]; primary AML specimen 09H070,0.124 µM
same,IC50,[1]; primary AML specimen 10H014,0.038 µM
same,IC50,[1]; primary AML specimen 10H046,0.0388 µM
same,IC50,[1]; primary AML specimen 10H107,0.0371 µM
same,IC50,[1]; primary AML specimen 10H127,0.048 µM
same,IC50,[1]; primary AML specimen 10H161,0.0422 µM
same,IC50,[1]; primary AML specimen 10H174,0.0382 µM
same,IC50,[1]; primary AML specimen 11H008,0.0457 µM
same,IC50,[1]; primary AML specimen 11H019,0.041 µM
same,IC50,[1]; primary AML specimen 11H170,0.141 µM
same,IC50,[1]; primary AML specimen 11H217,0.0488 µM
same,IC50,[1]; primary AML specimen 11H232,0.0398 µM
same,IC50,[1]; primary AML specimen 12H033,0.0614 µM
same,IC50,[1]; primary AML specimen 12H055,0.0447 µM
same,IC50,[1]; primary AML specimen 12H148,0.0444 µM
same,IC50,[1]; primary AML specimen 13H053,0.0559 µM
same,IC50,[1]; primary AML specimen 15H045,0.0284 µM
same,IC50,[1]; primary AML specimen 17H065,0.0591 µM
same,IC50,[2],0.018 µM
same,MFI of cyclin KeGFP over mCherry,"[3]; OCI-AML5 G7 clone, 3 h, 10 μM, normalized to DMSO (=100)",16.0 and 15.3 and 15.4
same,% degradation cyclin K-eGFP,[3]; cyclin K-eGFP reporter,84%
same,inhibition at 1 µM,[4],0%
same,inhibition at 1 µM,[5],0%
same,IC50,"[6]; Homo sapiens, OCI-AML-5, 96 h, read-out: IC50, sh CDK1, OCI-AML5, 4 days",0.0252 µM
same,IC50,"[6]; Homo sapiens, OCI-AML-5, 96 h, read-out: IC50, sh CDK2, OCI-AML5, 4 days",0.0228 µM
same,IC50,"[6]; Homo sapiens, OCI-AML-5, 96 h, read-out: IC50, sh CDK4, OCI-AML5, 4 days",0.0174 µM
same,IC50,"[6]; Homo sapiens, OCI-AML-5, 96 h, read-out: IC50, sh CDK7, OCI-AML5, 4 days",0.0202 µM
same,IC50,"[6]; Homo sapiens, OCI-AML-5, 96 h, read-out: IC50, sh CDK9, OCI-AML5, 4 days",0.0214 µM
same,IC50,"[6]; Homo sapiens, OCI-AML-5, 96 h, read-out: IC50, sh Cyclin K, OCI-AML5, 4 days",0.0057 µM
same,IC50,"[6]; Homo sapiens, OCI-AML-5, 96 h, read-out: IC50, sh ctrl, OCI-AML5, 4 days",0.0212 µM
same,Class,[6]; class from shRNA IC50 profile and cyclin K-eGFP degradation,1
same,IC50,"[6]; read-out: IC50, sh CDK1, OCI-AML5, 4 days",0.0227 µM and 0.0359 µM
same,IC50,"[6]; read-out: IC50, sh CDK2, OCI-AML5, 4 days",0.0211 µM and 0.0334 µM
same,IC50,"[6]; read-out: IC50, sh CDK4, OCI-AML5, 4 days",0.0207 µM and 0.0178 µM
same,IC50,"[6]; read-out: IC50, sh CDK7, OCI-AML5, 4 days",0.0237 µM and 0.0345 µM
same,IC50,"[6]; read-out: IC50, sh CDK9, OCI-AML5, 4 days",0.0173 µM and 0.0167 µM
same,IC50,"[6]; read-out: IC50, sh Cyclin K, OCI-AML5, 4 days",0.00831 µM and 0.00507 µM
same,IC50,"[6]; read-out: IC50, sh ctrl, OCI-AML5, 4 days",0.0179 µM and 0.0159 µM
same,Ratio shCUL4A/shCTRL,[7],4.77
